The source of these data is publication PMC7566913, “Dual Gene Delivery Reagents From Antiproliferative Alkylphospholipids for Combined Antitumor Therapy” (Frontiers in Chemistry, 2020).

A short description of series [1]: Hydrolytic stability of the APL prodrugs monitored by 31P-NMR. The series is classed as physicochemical. Conditions: for Hydrolytic stability after extended incubation: pH 7.4 and pH 4.5, 31 days at 25°C; for half-life: extrapolated from the experimental data, read-out: t1/2 (time needed for 50% hydrolysis) (converted). An excerpt: Aqueous formulation of the APL prodrugs produces nanosized lipid aggregates that most likely enter cells through the endocytosis pathway. To produce the expected intrinsic antineoplastic effect, APL-derived phosphotriesters need to be processed into the bioactive parent APLs. The hydrolysis of the prodrugs may be under the control of a chemical stimulus, e.g., a pH decrease as observed during the maturation of endosomes, or of degradation enzymes that massively enter the endosome compartment when continuing to lysosomes. To get some information on the transformation of pro-APLs into APLs, we monitored the hydrolysis of these compounds over time, at pH 7.4 and 4.5, conditions that mimick the extracellular milieu and the environment of the late endosome, respectively. This monitoring was realized using ^31P-NMR spectroscopy, according to a previously reported method (Pierrat et al., [2013b]). Whatever the compound investigated, only one single ^31P resonance did appear during the course of the experiments, corresponding to that of the parent APL. This confirmed that hydrolysis of the pro-APLs selectively occurred at the acetal center. […] As a general trend, hydrolysis of the pro-APLs was […] under neutral conditions (i.e., pH 7.4) than under acidic ones (i.e., pH 4.5). […] Besides, substitution of one hydrogen atom with a methyl group on the acetal bridge accelerated the rate of hydrolysis of the prodrugs. […] Indeed, in biological media, the enzyme-mediated hydrolysis of such compounds can proceed far quicker than “simple” chemical hydrolysis under pH control (Pierrat et al., [2012]). […]

Series [2] is described as follows: CMC/CAC by pyrene fluorescent probe technique in ultrapure water. It is filed as physicochemical. The settings on record: pyrene fluorescence. How it is done: The pro-APL molecules have been specifically engineered so they can be metabolized in situ under a biological stimulus to revert to the parent APL with antiproliferative activity. […] We thus aimed to determine the self-assembly properties of the APL prodrugs. […] Pyrene is a probe which fluorescence is sensitive to the polarity of the solubilizing medium. […] Fluorescence measurements were carried out in ultrapure water and data obtained for the various APLs and their prodrugs are shown in Table 2.
Pro-APLs Self-Assembly Properties
Starting from a lipid film, compounds were […]

Series [3] deals with A549 cells. Briefly: Cytotoxicity, MTT assay, A549. The series is classed as cell-based, human. Conditions: A549, 24 h at 37°C. How it is done: (§1) The cells were exposed for a 24-h period to increasing concentration of the pro-APLs, ranging from 500 nM to 1 mM, and cell viability was assessed using the MTT colorimetric assay (Mosmann, [1983]). For the three cell lines, viability decreased in a dose-dependent manner in response to APLs and pro-APLs (Supplementary Figures 2–4). Using the best-fit regression curve method, the IC50 value (concentration that provokes 50% inhibition of the cell growth) was calculated for each compound (Table 4). The three cell lines responded to the compounds with varying sensitivities. […] This is attributed to enzyme-mediated hydrolysis of the pro-APL compounds in the complemented culture medium or in the intracellular compartment, competing with pure pH-controlled chemical hydrolysis. According to its structure, a pro-APL may or not be a substrate for specific lipases and, thus, may or not be hydrolyzed into the parent cytotoxic compound. […]
(§2) At confluency, cells were released […]
(§3) Cells were seeded into 96-well plates (Becton-Dickinson) at the required density (vide supra) in 100 µL of serum containing culture medium. […]
(§4) Mitochondrial activity measurements (MTT assay) was used to assess cytotoxicity of the compounds.
(§5) Lipid samples were prepared from a lipid film (3.6 µmol of compound evaporated from an ethanolic solution) hydrated with aqueous glucose 5 % and vigorously vortexed for 20 s before serial dilution in aqueous glucose 5 %. For addition of lipid samples to cell culture, part of the culture medium in the culture plates prepared the day before (25 µL) was removed and replaced by lipid samples (25 µL). Negative control was obtained by adding glucose 5 % to the cells instead of lipoplexes.
(§6) After a 24-h incubation period at 37 °C, culture supernatant was removed, cells were carefully washed with PBS and MTT (100 µL, 0.5 mg/mL) in complete culture medium was added. After a 1-h incubation period at 37 °C, the MTT sol ution was removed and DMSO (100 µL) was added to lyse cells and dissolve reduced MTT. Intensity of MTT reduction was then evaluated by measuring absorbance at 492 nm. Viability of cells treated with lipids or lipoplexes was expressed as the percentage of the absorbance measured in untreated cells. Value for each sample is the mean of triplicate determinations (± SD). IC50 values were determined within the 95 % confidence interval using nonlinear regression analysis with the GraphPad Prism software (GraphPad Software, San […]
(§7) All data are representative of a triplicate determination and are presented as the mean ± SD.
(§8) Statistical significance between treatments was assessed by one-way analysis of variance (ANOVA) followed by the Dunnett multiple comparison test, using the Kaleidagraph 4.5 software (Synergy Software, Reading, PA, USA). Data were considered as statistically significant for p value less than

Series [4] relates to H292 cells. Briefly: Cytotoxicity, MTT assay, H292. It is filed as cell-based, human. How it is done: as §1, §2, §3, §4, §5, §6, §7, §8
Series [5] relates to 16HBE cells. Nature of the series: Cytotoxicity, MTT assay, 16HBE. The series is classed as cell-based, human. Conditions: 24 h at 37°C. How it is done: as §1, §2, §3, §4, §5, §6, §7, §8
Series [6] in a line: Particle size and zeta potential of lipoplexes by DLS. Conditions: lipoplexes with pCMV-Gluc, 25 °C, 5 % glucose, N/P 3, 1 molar equivalent of DOPE. The series is classed as physicochemical. An excerpt: The capacity of the pro-APLs to interact electrostatically with nucleic acids and form lipoplexes was checked by standard agarose gel electrophoresis. […] The size (hydrodynamic diameter) and charge (zeta potential, ζ) of the lipoplexes prepared at an N/P ratio of 3 with one molar equivalent of dioleoyl-sn-glycero-3-phosphatidylethanolamine (DOPE), a lipid with fusogenic properties (Hui et al., [1996]; Zuhorn et al., [2005]), were investigated by DLS (Supplementary Table 1).
as measured by DLS. Lipoplexes were prepared at 25 °C, in 5 % glucose, at a N/P ratio of 3 and with
1 molar equivalent of DOPE.
(Gaillard et al., 2019). Data are the mean of three independent measurements (± SD).

Series [7] deals with sheep RBC. Briefly: Hemolytic activity, red blood cell leakage assay. The settings on record: 37°C.
Method: To evaluate this hypothesis, the hemolytic activity of the APLs and pro-APLs was measured. Sheep RBC were incubated for 1 h with escalating doses of aqueous dispersion of the compounds at 37°C. At the end of the incubation period, hemoglobin leakage was determined spectrophotometrically.
Thus, in order to better characterize the hemolytic effect of the pro-APLs, the incubation period has been extended and release of hemoglobin was measured after 24 h.
Red blood cell (RBC) leakage assay was carried out according to a previously described procedure
(Evans et al, 2013). RBC were prepared from defibrinated sheep blood. Briefly, blood sample (5 mL) was centrifuged at 500 x g for 5 min. After removal of the yellow upper layer, an equal volume of
Details of series [8]: method as in Gaillard et al., 2019. The settings on record: pyrene fluorescence, ref Gaillard et al., 2019, cited from earlier work.
The test system of series [9] is A549 cells. Also on record: method as in Gaillard et al., 2019. The settings on record: A549, 24 h at 37°C, MTT assay; ref Gaillard et al., 2019; cited from earlier work.
Series [10] concerns H292 cells. The arrangement: method as in Gaillard et al., 2019. Conditions: H292, 24 h at 37°C, MTT assay; ref Gaillard et al., 2019; cited from earlier work.
In series [11] the test system is 16HBE cells. Also on record: method as in Gaillard et al., 2019. The settings on record: 24 h at 37°C, MTT assay, ref Gaillard et al., 2019; cited from earlier work.
Series [12] concerns sheep RBC. The settings on record: cited from earlier work.
Setting [13] is: Homo sapiens, NCI-H292, H292, 24 h at 37°C.
Where [14] appears, read: HEPES buffer with Triton X-100, pH 7.4.
Where [15] appears, read: potassium acetate/acetic acid buffer with Triton X-100, pH 4.5.

Read-outs that look alike come from different tables or passages of the source.

Turning to “3-((((((Dodecyloxy)carbonyl)oxy)methoxy)(hexadecyloxy)phosphoryl)oxy)-N,N,N-trimethylpropan-1- aminium chloride [MC12]”, the “H120 (hydrolysis rate after a 120-h incubation period)” value came to 3% in [1] (pH 4.5) and 11% in [1] (pH 7.4). Also, in series [2], the “CMC (APLs) / CAC (pro-APLs)” value stood at 4.1 ± 2.5 µM. Moreover, the IC50 was 151 ± 42 µM in series [3]; 81 ± 29 µM in series [4] (H292, 24 h at 37°C); 62 ± 15 µM in [5]. Besides, the “Particle size of lipoplexes” value in series [6] is given as 186 ± 48 nm.
For “3-((((((Dodecyloxy)carbonyl)oxy)methoxy)(octadecyloxy)phosphoryl)oxy)-N,N,N-trimethylpropan-1-aminium chloride [PC12]”, the “H120 (hydrolysis rate after a 120-h incubation period)” value in series [1] (pH 4.5) and in series [1] (pH 7.4) was 6% in each case. The “CMC (APLs) / CAC (pro-APLs)” value in series [2] was determined as 4.5 ± 1.6 µM. Moreover, the half-maximal inhibitory concentration (IC50) in series [3] was 89 ± 24 µM; in [4] (H292, 24 h at 37°C) it was 73 ± 17 µM; in series [5] it was 82 ± 33 µM. Further, the “Particle size of lipoplexes” value in series [6] is 576 ± 41 nm.
Take `CCCCCCCCCCCCCCCCOP(=O)(OCCCCCCCCCCCC)OCC[N+](C)(C)C` (centres unmarked) [Compound M12, 2-(((Dodecyloxy)(hexadecyloxy)phosphoryl)oxy)-N,N,N-trimethylethan-1-aminium triflate]: the “H120 (hydrolysis rate after a 120-h incubation period)” value in series [1] (pH 4.5) and in series [1] (pH 7.4) was 0% throughout. In series [1], the “Hydrolytic stability after extended incubation” value is listed as “fully stable”. In series [2], the “CMC (APLs) / CAC (pro-APLs)” value worked out at 1.1 ± 0.6 µM. For the same compound, the IC50 is 46 ± 11 µM in series [3] (Homo sapiens), 56 ± 7 µM in series [4] (setting [13]) and 107 ± 14 µM in series [5] (Homo sapiens). Besides, the “Particle size of lipoplexes” value in series [6] is given as 121 ± 13 nm. For the same compound, the “HA200 (hemolytic activity at 200 μM)” value was 13.1 ± 1.0% in series [7] (1 h) and 63.9 ± 8.1% in [7] (24 h).
Turning to `CCCCCCCCCCCCCCCCCCOP(=O)(OCCCCCCCCCCCC)OC1CC[N+](C)(C)CC1.[Cl-]` (centres unmarked) [Compound P12, 4-(((Dodecyloxy)(octadecyloxy)phosphoryl)oxy)-1,1-dimethylpiperidin-1-ium chloride], the “H120 (hydrolysis rate after a 120-h incubation period)” value in [1] (pH 4.5) and in series [1] (pH 7.4) was 0% each time. The “Hydrolytic stability after extended incubation” value in [1] was “fully stable”. Besides, in series [2], the “CMC (APLs) / CAC (pro-APLs)” value worked out at 1.2 ± 0.4 µM. The figures for the IC50 in [3] (Homo sapiens), in [4] (setting [13]) and in [5] (Homo sapiens) were 56 ± 7 µM, 63 ± 5 µM and 72 ± 7 µM, respectively. Besides, the “Particle size of lipoplexes” value in series [6] came out at 348 ± 43 nm. In addition, the figures for the “HA200 (hemolytic activity at 200 μM)” value in series [7] (1 h) and in series [7] (24 h) were 8.1 ± 0.9% and 35.7 ± 4.1%, respectively.
For `CCCCCCCCCCCCCCCCOP(=O)(OCC[N+](C)(C)C)OC(C)OC(=O)CCCCCCCCCCC.[Cl-]` (centres unmarked) [M E^′12, 2-(((1-(Dodecanoyloxy)ethoxy)(hexadecyloxy)phosphoryl)oxy)-N,N,N-trimethylethan-1-aminium chloride], the half-life is 18 h in series [1] (setting [14]) and 17 h in [1] (setting [15]). In addition, the “H120 (hydrolysis rate after a 120-h incubation period)” value in series [1] (pH 4.5) was determined as 91%; in series [1] (pH 7.4), 89%. Moreover, in [2], the “CMC (APLs) / CAC (pro-APLs)” value came to 1.3 ± 0.7 µM. In addition, the IC50 in series [3] (Homo sapiens) was 139 ± 32 µM; in series [4] (setting [13]), 59 ± 10 µM; in series [5] (Homo sapiens) it was 49 ± 6 µM. The “Particle size of lipoplexes” value in [6] stood at 86 ± 3 nm. In addition, the “HA200 (hemolytic activity at 200 μM)” value in series [7] (24 h) amounted to 101.7 ± 1.8%.
Regarding `CCCCCCCCCCCCCCCCCCOP(=O)(OC1CC[N+](C)(C)CC1)OC(C)OC(=O)CCCCCCCCCCC.[Cl-]` (centres unmarked) [P E^′12, 4-(((1-(Dodecanoyloxy)ethoxy)(octadecyloxy)phosphoryl)oxy)-1,1-dimethylpiperidin-1-ium chloride], the half-life in series [1] (setting [14]) was 84 h; in series [1] (setting [15]) it was 90 h. Also, the “H120 (hydrolysis rate after a 120-h incubation period)” value in series [1] (pH 4.5) and in series [1] (pH 7.4) was 60% each time. Besides, the “CMC (APLs) / CAC (pro-APLs)” value in [2] turned out to be 2.3 ± 1.4 µM. For the same compound, the IC50 in series [3] (Homo sapiens) amounted to 148 ± 38 µM; in series [4] (setting [13]), 116 ± 25 µM; in series [5] (Homo sapiens), 60 ± 5 µM. Further, the “Particle size of lipoplexes” value in series [6] turned out to be 610 ± 54 nm. Besides, the “HA200 (hemolytic activity at 200 μM)” value in series [7] (24 h) is recorded as 80.1 ± 0.2%.
Take `CCCCCCCC/C=C\CCCCCCCCOP(=O)(OCCC[N+](C)(C)C)OCOC(=O)OCCCCCCCCCCCC.[Cl-]` (centres unmarked) [PC18:1, 3-((((((Dodecyloxy)carbonyl)oxy)methoxy)(oleyloxy)phosphoryl)oxy)-N,N,N-trimethylpropan-1-aminium chloride]: the “CMC (APLs) / CAC (pro-APLs)” value in series [2] turned out to be 2.3 ± 1.0 µM. Further, the IC50 turned out to be 273 ± 69 µM in [3] (Homo sapiens), 186 ± 42 µM in series [4] (setting [13]) and 207 ± 49 µM in series [5] (Homo sapiens). For the same compound, in [6], the “Particle size of lipoplexes” value is 489 ± 130 nm.
On to Erufosine [reference compound], for which the “CMC (APLs) / CAC (pro-APLs)” value in series [8] is 1.6 ± 0.5 µM; in series [8] (listed as erufosine), 1.6 µM. The IC50 in series [9] was 57 ± 8 µM; in series [10] it was 46 ± 8 µM; in series [11], 19 ± 3 µM. In addition, the “HA200 (hemolytic activity at 200 μM)” value in series [12] is 84.9 ± 4.5%.
